Structures can show the parent of a compound that is named as a salt. Where only a bound is given, the exact number is not on record here.

The target of the first test is T1, hBUB1 (Homo sapiens, UniProt O43683).
T1 construct: purchased Carna Biosciences 05-187
T1 sequence (O43683 whole entry): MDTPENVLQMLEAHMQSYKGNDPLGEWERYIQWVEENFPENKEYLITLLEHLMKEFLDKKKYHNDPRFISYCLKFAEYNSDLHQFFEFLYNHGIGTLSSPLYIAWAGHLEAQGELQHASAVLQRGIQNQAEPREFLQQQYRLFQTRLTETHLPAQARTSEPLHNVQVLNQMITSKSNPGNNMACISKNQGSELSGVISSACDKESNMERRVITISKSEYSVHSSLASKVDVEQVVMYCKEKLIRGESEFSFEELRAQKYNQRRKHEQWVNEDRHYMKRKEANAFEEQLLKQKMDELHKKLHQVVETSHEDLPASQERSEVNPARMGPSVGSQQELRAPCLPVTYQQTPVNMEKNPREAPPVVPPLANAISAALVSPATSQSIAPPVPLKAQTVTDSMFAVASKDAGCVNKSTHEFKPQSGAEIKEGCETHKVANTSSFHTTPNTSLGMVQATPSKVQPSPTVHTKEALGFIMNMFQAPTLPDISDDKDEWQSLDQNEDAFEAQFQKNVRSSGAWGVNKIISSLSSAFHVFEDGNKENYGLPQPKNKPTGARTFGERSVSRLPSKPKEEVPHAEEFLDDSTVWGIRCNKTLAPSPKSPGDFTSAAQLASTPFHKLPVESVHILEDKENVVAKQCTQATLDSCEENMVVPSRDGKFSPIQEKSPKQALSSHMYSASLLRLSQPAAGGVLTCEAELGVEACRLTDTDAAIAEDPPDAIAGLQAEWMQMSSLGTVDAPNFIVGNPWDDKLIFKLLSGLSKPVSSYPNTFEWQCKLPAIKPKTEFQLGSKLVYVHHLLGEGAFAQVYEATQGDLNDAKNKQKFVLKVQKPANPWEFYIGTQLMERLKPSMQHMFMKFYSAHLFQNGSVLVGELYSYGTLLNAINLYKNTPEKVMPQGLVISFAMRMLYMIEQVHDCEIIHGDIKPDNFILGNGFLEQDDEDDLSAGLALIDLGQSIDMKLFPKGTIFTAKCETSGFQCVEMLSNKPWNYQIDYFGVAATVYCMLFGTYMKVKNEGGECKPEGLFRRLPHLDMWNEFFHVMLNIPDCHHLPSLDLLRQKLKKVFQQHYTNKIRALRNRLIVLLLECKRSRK
T1 sequence (O43684 whole entry partner): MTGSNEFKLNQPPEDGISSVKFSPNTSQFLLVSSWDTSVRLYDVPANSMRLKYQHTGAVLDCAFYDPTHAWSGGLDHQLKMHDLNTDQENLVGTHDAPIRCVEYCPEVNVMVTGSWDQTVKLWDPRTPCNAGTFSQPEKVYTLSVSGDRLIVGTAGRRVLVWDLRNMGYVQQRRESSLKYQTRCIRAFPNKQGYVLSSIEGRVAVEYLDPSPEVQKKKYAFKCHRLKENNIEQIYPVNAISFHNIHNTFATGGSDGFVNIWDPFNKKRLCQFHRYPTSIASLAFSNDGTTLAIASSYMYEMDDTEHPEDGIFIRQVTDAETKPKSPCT
Nature of the test: hBUB1 kinase activity assay (biochemical fluorescence polarization assay, IMAP). The note with it: BUB1/BUB3 3.26 nM, ATP 15 µM, BUB1/BUB3 substrate 75 nM; N=2, n=2. Here is the method:
This protocol describes how the Kinase Activity Assay was performed to determine pIC50 values of compounds of general formula (I) against hBUB1.
Assays were performed in 384-well plates (Greiner, black, flat bottom, 781076) by sequential addition (final concentrations are indicated) of inhibitor (5 µL, 0.3 nM - 1 µM or 3 nM - 10 µM), BUB1/BUB3 (5 µL, 3.26 nM, Carna Biosciences (05-187), lot: 15CBS-0644 D), ATP (5 µL, 15 µM) and BUB1/BUB3 substrate (5 µL, 75 nM, Carna Biosciences (05-187MSSU)), all as 4x working solutions. The final concentration of DMSO was 1%. Assay reactions were stopped by addition of IMAP progressive binding reagent (20 µL, 1200x diluted, Molecular Devices (R8155), lot: 3117896). Each assay included the following controls: (i) a background control (treated with vehicle instead of inhibitor and BUB1/BUB3 substrate), (ii) MIN controls (treated with 5 µM BAY1816032 (MedChem Express) as inhibitor, used as 0% BUB1 activity) and (iii) MAX controls (treated with vehicle instead of inhibitor, used as 100% BUB1 activity). All inhibitors were tested in two separate assays and all inhibitor concentrations were tested in duplicate per assay (N=2, n=2).
For each assay, assay buffer (AB) was freshly prepared and consisted of 20 mM HEPES (prepared by diluting 1 M HEPES, pH 7.2), 5 mM MgCl2, 0.01% Tween-20 and 1 mM DTT. Stocks of inhibitors (in DMSO) were diluted in AB to obtain 4x working solutions (4% DMSO) and 5 µL was added to the assay plate. BUB1/BUB3 (3.26 µM (486 µg/mL) in storage buffer) was diluted in AB to obtain 13.0 nM of which 5 µL was added to all wells of the assay plate. The assay plate was centrifuged (1 min, 200 g) and incubated at RT for 30 min. ATP (4 mM in MilliQ) was diluted in AB to obtain 60 µM of which 5 µL was added to each well. BUB1/BUB3 substrate (1 mM) was diluted in 20 mM HEPES (prepared by diluting 1 M HEPES (pH 7.2) in MilliQ) to obtain 80 µM (this solution was freshly prepared every assay) and further diluted in AB to obtain 300 nM after which 5 µL was added to each well of the assay plate except for background control wells. The assay plate was centrifuged (1 min, 200 g) and incubated at RT in the dark for 180 min. IMAP progressive binding buffer A (5x) and IMAP progressive binding buffer B (5x) were mixed in a ratio to obtain 30% buffer A and 70% buffer B, which was subsequently diluted 5x in MilliQ. IMAP progressive binding reagent was diluted 600x in aforementioned mixture of buffer A and B (to obtain a 2x working solution) of which 20 µL was added to each well of the assay plate. The assay plate was centrifuged (1 min, 200 g) and incubated at RT in the dark for 90 min. Fluorescence polarization was measured on a CLARIOstar plate reader using the following settings: (i) optic settings → excitation = F: 482-16, dichroic = F: LP 504, emission = F: 530-40, (ii) optic = top optic, (iii) speed/precision = maximum precision, (iv) focus adjustment was performed for every assay and (v) gain adjustment was done by setting the target mP value to 35 mP for one of the MIN control wells. Data was normalized between MIN and MAX controls and data was plotted using GraphPad Prism 8.0 using "Nonlinear regression (curve fit)" and "log(inhibitor) vs. normalized response - Variable slope" to determine pIC50 values.
Inhibition is indicated as pIC50 ("-" = not measured). Compounds having an activity designated as "A" provided an pIC50 ≥ 7.0 (IC50 ≤100 nM); compounds having an activity designated as "B" provided an 6.3 ≤ pIC50 < 7.0 (100 nM<IC50 ≤ 500 nM); compounds having an activity designated as "C" provided an 6.0 ≤ pIC50 < 6.3 (500 nM < IC50 ≤ 1 µM); compounds having an activity designated as "D" provided an 6.0 < pIC50 ≤ 5.0 (1 µM < IC50 ≤ 10 µM); and compounds having an activity designated as "E" provided an pIC50 < 5.0 (IC50 >10 µM).
Take `c1ccc2c(-c3nccc(Nc4c[nH]nc4-c4nc5ccccc5[nH]4)n3)cccc2c1` [Compound 36, N-(3-(1H-Benzo[d]imidazol-2-yl)-1H-pyrazol-4-yl)-2-(naphthalen-1-yl)pyrimidin-4-amine]: the “hBUB1 pIC50” value was “D (6.0 < pIC50 ≤ 5.0 (1 µM < IC50 ≤ 10 µM))”.

In the case of `Cc1ccccc1-c1nccc(Nc2c[nH]nc2-c2nc3ccccc3[nH]2)n1` [Compound 24, N-(3-(1H-benzo[d]imidazol-2-yl)-1H-pyrazol-4-yl)-2-(o-tolyl)pyrimidin-4-amine], the “hBUB1 pIC50” value is given as “D (6.0 < pIC50 ≤ 5.0 (1 µM < IC50 ≤ 10 µM))”.

`c1ccc(-c2nccc(Nc3c[nH]nc3-c3nc4ccccc4[nH]3)n2)cc1` [Compound 23, N-(3-(1H-benzo[d]imidazol-2-yl)-1H-pyrazol-4-yl)-2-phenylpyrimidin-4-amine]: the “hBUB1 pIC50” value is reported as “D (6.0 < pIC50 ≤ 5.0 (1 µM < IC50 ≤ 10 µM))”.

In the case of `COc1ccc(-c2nccc(Nc3c[nH]nc3-c3nc4ccccc4[nH]3)n2)cc1` [Compound 34, N-(3-(1H-Benzo[d]imidazol-2-yl)-1H-pyrazol-4-yl)-2-(4-methoxyphenyl)pyrimidin-4-amine], the “hBUB1 pIC50” value was “D (6.0 < pIC50 ≤ 5.0 (1 µM < IC50 ≤ 10 µM))”.

Turning to `Clc1ccc(-c2nccc(Nc3c[nH]nc3-c3nc4ccccc4[nH]3)n2)cc1` [Compound 33, N-(3-(1H-Benzo[d]imidazol-2-yl)-1H-pyrazol-4-yl)-2-(4-chlorophenyl)pyrimidin-4-amine], the “hBUB1 pIC50” value is “D (6.0 < pIC50 ≤ 5.0 (1 µM < IC50 ≤ 10 µM))”.

As to `c1ccc2cc(-c3nccc(Nc4c[nH]nc4-c4nc5ccccc5[nH]4)n3)ccc2c1` [Compound 39, N-(3-(1H-Benzo[d]imidazol-2-yl)-1H-pyrazol-4-yl)-2-(naphthalen-2-yl)pyrimidin-4-amine], the “hBUB1 pIC50” value was “D (6.0 < pIC50 ≤ 5.0 (1 µM < IC50 ≤ 10 µM))”.

As for `c1ccc2[nH]c(-c3n[nH]cc3Nc3ccnc(-c4cccc5[nH]ncc45)n3)nc2c1` [Compound 38, N-(3-(1H-Benzo[d]imidazol-2-yl)-1H-pyrazol-4-yl)-2-(1H-indazol-4-yl)pyrimidin-4-amine], the “hBUB1 pIC50” value was “D (6.0 < pIC50 ≤ 5.0 (1 µM < IC50 ≤ 10 µM))”.

With `COc1ccccc1-c1nccc(Nc2c[nH]nc2-c2nc3ccccc3[nH]2)n1` [Compound 26, N-(3-(1H-Benzo[d]imidazol-2-yl)-1H-pyrazol-4-yl)-2-(2-methoxyphenyl)pyrimidin-4-amine], the “hBUB1 pIC50” value is given as “D (6.0 < pIC50 ≤ 5.0 (1 µM < IC50 ≤ 10 µM))”.

Turning to `Cc1ccc(-c2nccc(Nc3c[nH]nc3-c3nc4ccccc4[nH]3)n2)cc1` [Compound 32, N-(3-(1H-Benzo[d]imidazol-2-yl)-1H-pyrazol-4-yl)-2-(p-tolyl)pyrimidin-4-amine], the “hBUB1 pIC50” value is on record as “D (6.0 < pIC50 ≤ 5.0 (1 µM < IC50 ≤ 10 µM))”.

As for `CC(C)c1cccc(-c2nccc(Nc3c[nH]nc3-c3nc4ccccc4[nH]3)n2)c1` [Compound 30, N-(3-(1H-Benzo[d]imidazol-2-yl)-1H-pyrazol-4-yl)-2-(3-isopropylphenyl)pyrimidin-4-amine], the “hBUB1 pIC50” value was “D (6.0 < pIC50 ≤ 5.0 (1 µM < IC50 ≤ 10 µM))”.

The test is the same for the next values; noted with them: BUB1/BUB3 3.26 nM, ATP 15 µM, BUB1/BUB3 substrate 75 nM; N=2, n=2; read-out: hBUB1 pIC50 (converted).
For `c1cc(-c2nccc(Nc3c[nH]nc3-c3nc4ccccc4[nH]3)n2)c2[nH]ccc2c1` [Compound 37, N-(3-(1H-Benzo[d]imidazol-2-yl)-1H-pyrazol-4-yl)-2-(1H-indol-7-yl)pyrimidin-4-amine], the IC50 is over 10000 nM.

Take `C#Cc1nccc(Nc2c[nH]nc2-c2nc3cc(CN4CCOCC4)ccc3[nH]2)n1` [Compound 15, 2-ethynyl-N-(3-(5-(morpholinomethyl)-1H-benzo[d]imidazol-2-yl)-1H-pyrazol-4-yl)pyrimidin-4-amine]: the IC50 was 100 to 501 nM.

`c1csc(-c2nccc(Nc3c[nH]nc3-c3nc4cc(CN5CCOCC5)ccc4[nH]3)n2)c1` [Compound 22, N-(3-(5-(morpholinomethyl)-1H-benzo[d]imidazol-2-yl)-1H-pyrazol-4-yl)-2-(thiophen-2-yl)pyrimidin-4-amine hydrochloride]: the IC50 was 501 to 1000 nM.

Take `c1ccc(CCOc2nccc(Nc3c[nH]nc3-c3nc4cc(CN5CCOCC5)ccc4[nH]3)n2)cc1` [Compound 19, N-(3-(5-(morpholinomethyl)-1H-benzo[d]imidazol-2-yl)-1H-pyrazol-4-yl)-2-phenethoxypyrimidin-4-amine]: the IC50 was 501 to 1000 nM.

As to `c1cnn(-c2nccc(Nc3c[nH]nc3-c3nc4cc(CN5CCOCC5)ccc4[nH]3)n2)c1` [Compound 20, N-(3-(5-(Morpholinomethyl)-1H-benzo[d]imidazol-2-yl)-1H-pyrazol-4-yl)-2-(1H-pyrazol-1-yl)pyrimidin-4-amine], the IC50 is 501 to 1000 nM.

On to `COc1cccc(-c2nccc(Nc3c[nH]nc3-c3nc4ccccc4[nH]3)n2)c1` [Compound 29, N-(3-(1H-Benzo[d]imidazol-2-yl)-1H-pyrazol-4-yl)-2-(3-methoxyphenyl)pyrimidin-4-amine], for which the IC50 is 501 to 1000 nM.

Regarding `c1cc(Nc2c[nH]nc2-c2nc3cc(CN4CCOCC4)ccc3[nH]2)nc(-c2ccsc2)n1` [Compound 21, N-(3-(5-(morpholinomethyl)-1H-benzo[d]imidazol-2-yl)-1H-pyrazol-4-yl)-2-(thiophen-3-yl)pyrimidin-4-amine hydrochloride], the IC50 was 501 to 1000 nM.

As for `Cc1cccc(-c2nccc(Nc3c[nH]nc3-c3nc4ccccc4[nH]3)n2)c1` [Compound 27, N-(3-(1H-Benzo[d]imidazol-2-yl)-1H-pyrazol-4-yl)-2-(m-tolyl)pyrimidin-4-amine], the IC50 is 100 to 501 nM.

Take `Clc1ccc(Oc2nccc(Nc3c[nH]nc3-c3nc4cc(CN5CCOCC5)ccc4[nH]3)n2)cc1` [Compound 50, 2-(4-Chlorophenoxy)-N-(3-(5-(morpholinomethyl)-1H-benzo[d]imidazol-2-yl)-1H-pyrazol-4-yl)pyrimidin-4-amine]: the IC50 was 501 to 1000 nM.

Regarding `Clc1ccccc1-c1nccc(Nc2c[nH]nc2-c2nc3ccccc3[nH]2)n1` [Compound 25, N-(3-(1H-Benzo[d]imidazol-2-yl)-1H-pyrazol-4-yl)-2-(2-chlorophenyl)pyrimidin-4-amine], the IC50 was 501 to 1000 nM.

In the case of `Clc1cccc(-c2nccc(Nc3c[nH]nc3-c3nc4ccccc4[nH]3)n2)c1` [Compound 28, N-(3-(1H-Benzo[d]imidazol-2-yl)-1H-pyrazol-4-yl)-2-(3-chlorophenyl)pyrimidin-4-amine], the IC50 is 100 to 501 nM.

Regarding `Clc1cccc(Oc2nccc(Nc3c[nH]nc3-c3nc4cc(CN5CCOCC5)ccc4[nH]3)n2)c1` [Compound 49, 2-(3-Chlorophenoxy)-N-(3-(5-(morpholinomethyl)-1H-benzo[d]imidazol-2-yl)-1H-pyrazol-4-yl)pyrimidin-4-amine], the IC50 was 501 to 1000 nM.

For `Clc1ccccc1Oc1nccc(Nc2c[nH]nc2-c2nc3cc(CN4CCOCC4)ccc3[nH]2)n1` [Compound 48, 2-(2-Chlorophenoxy)-N-(3-(5-(morpholinomethyl)-1H-benzo[d]imidazol-2-yl)-1H-pyrazol-4-yl)pyrimidin-4-amine], the IC50 is 501 to 1000 nM.

The values above are taken from EP4293019A1, “4-SUBSTITUTED (1H-BENZO[D]IMIDAZOL-2-YL)-1H-PYRAZOLES AS BUB1 INHIBITORS USEFUL FOR TREATING CANCERS” (Netherlands Translational Research Center Holding B.V., priority 2022, dated 2023).
